In patent US20160326142A1, “PYRAZOLE CARBOXAMIDE COMPOUNDS, COMPOSITIONS AND METHODS OF USE” (Genentech, Inc., priority 2012, published 2016):

target: T1, ITK (Homo sapiens, UniProt Q08881); experiment: ITK enzyme assay (Caliper or LCMS peptide phosphorylation); format: biochemical; details: purified ITK (Invitrogen PV3875), 20 μM ATP, Ki by Morrison's quadratic equation
T1 construct: purchased Invitrogen PV3875
T1 sequence (Q08881 1-620): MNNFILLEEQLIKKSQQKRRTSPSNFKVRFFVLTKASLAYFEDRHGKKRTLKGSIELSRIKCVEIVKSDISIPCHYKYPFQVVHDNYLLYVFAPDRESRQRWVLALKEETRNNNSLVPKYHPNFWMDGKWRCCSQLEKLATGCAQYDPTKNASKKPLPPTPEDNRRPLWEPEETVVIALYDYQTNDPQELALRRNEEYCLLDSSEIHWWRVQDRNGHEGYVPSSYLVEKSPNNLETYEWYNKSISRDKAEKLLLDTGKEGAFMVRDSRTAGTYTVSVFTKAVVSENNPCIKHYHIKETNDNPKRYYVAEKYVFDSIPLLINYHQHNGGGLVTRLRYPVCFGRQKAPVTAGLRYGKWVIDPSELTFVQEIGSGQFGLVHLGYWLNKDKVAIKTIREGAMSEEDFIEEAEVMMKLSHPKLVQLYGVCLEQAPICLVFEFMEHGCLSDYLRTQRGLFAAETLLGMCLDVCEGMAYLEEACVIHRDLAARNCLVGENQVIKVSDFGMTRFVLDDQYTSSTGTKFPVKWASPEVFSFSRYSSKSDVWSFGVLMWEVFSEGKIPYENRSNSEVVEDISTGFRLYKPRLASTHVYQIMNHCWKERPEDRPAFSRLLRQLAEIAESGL
Outline: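 Ki values come from Morrison quadratic fits of activity versus inhibitor concentration, adjusted for ATP-competitive inhibition against ATP/Km,app. Substrate and phosphopeptide from purified ITK reactions were resolved either microfluidically (Caliper, EDTA stop) or by LC-MS MRM (TCA stop).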

| SMILES | Ki |
| --- | --- |
| CC(c1cnn(C)c1)n1cc(NC(=O)c2n[nH]c3c2CCC(C)(C)C3)cn1 (single isomer, unassigned) [Example 91a, 6,6-dimethyl-N-(1-(1-(1-methyl-1H-pyrazol-4-yl)ethyl)-1H-pyrazol-4-yl)-4,5,6,7-tetrahydro-1H-indazole-3-carboxamide] | 11 nM |
| CC(c1cnn(C)c1)n1cc(NC(=O)c2n[nH]c3c2CCC(C)(C)C3)cn1 (single isomer, unassigned) [Example 91b, 6,6-dimethyl-N-(1-(1-(1-methyl-1H-pyrazol-4-yl)ethyl)-1H-pyrazol-4-yl)-4,5,6,7-tetrahydro-1H-indazole-3-carboxamide] | 19 nM |
| CC(c1nccs1)n1cc(NC(=O)c2n[nH]c3c2CCC(C)(C)C3)cn1 (single isomer, unassigned) [Example 92a, 6,6-dimethyl-N-(1-(1-(thiazol-2-yl)ethyl)-1H-pyrazol-4-yl)-4,5,6,7-tetrahydro-1H-indazole-3-carboxamide] | 7 nM |
| CC(c1nccs1)n1cc(NC(=O)c2n[nH]c3c2CCC(C)(C)C3)cn1 (single isomer, unassigned) [Example 92b, 6,6-dimethyl-N-(1-(1-(thiazol-2-yl)ethyl)-1H-pyrazol-4-yl)-4,5,6,7-tetrahydro-1H-indazole-3-carboxamide] | 10 nM |
| CC12Cc3[nH]nc(C(=O)Nc4cnn(C(CS(C)(=O)=O)c5cccnc5)c4)c3CC1C2 (single isomer, unassigned) [Example 93a, 5a-methyl-N-(1-(2-(methylsulfonyl)-1-(pyridin-3-yl)ethyl)-1H-pyrazol-4-yl)-1,4,4a,5,5a,6-hexahydrocyclopropa[f]indazole-3-carboxamide] | < 0.1 nM |
| CC12Cc3[nH]nc(C(=O)Nc4cnn(C(CS(C)(=O)=O)c5cccnc5)c4)c3CC1C2 (single isomer, unassigned) [Example 93b, 5a-methyl-N-(1-(2-(methylsulfonyl)-1-(pyridin-3-yl)ethyl)-1H-pyrazol-4-yl)-1,4,4a,5,5a,6-hexahydrocyclopropa[f]indazole-3-carboxamide] | 1 nM |
| CC1(C)Cc2[nH]nc(C(=O)Nc3cnn(C(c4ccccc4)C4CCS(=O)(=O)CC4)c3)c2C1 (single isomer, unassigned) [Example 94a, N-(1-((1,1-dioxidotetrahydro-2H-thiopyran-4-yl)(phenyl)methyl)-1H-pyrazol-4-yl)-5,5-dimethyl-1,4,5,6-tetrahydrocyclopenta[c]pyrazole-3-carboxamide] | 0.3 nM |
| CC1(C)Cc2[nH]nc(C(=O)Nc3cnn(C(c4ccccc4)C4CCS(=O)(=O)CC4)c3)c2C1 (single isomer, unassigned) [Example 94b, N-(1-((1,1-dioxidotetrahydro-2H-thiopyran-4-yl)(phenyl)methyl)-1H-pyrazol-4-yl)-5,5-dimethyl-1,4,5,6-tetrahydrocyclopenta[c]pyrazole-3-carboxamide] | 13 nM |
| CC1(C)Cc2[nH]nc(C(=O)Nc3cnn(Cc4ccccc4)c3)c2CC1CO (single isomer, unassigned) [Example 95a, N-(1-benzyl-1H-pyrazol-4-yl)-5-(hydroxymethyl)-6,6-dimethyl-4,5,6,7-tetrahydro-1H-indazole-3-carboxamide] | 5 nM |
| CC1(C)Cc2[nH]nc(C(=O)Nc3cnn(Cc4ccccc4)c3)c2CC1CO (single isomer, unassigned) [Example 95b, N-(1-benzyl-1H-pyrazol-4-yl)-5-(hydroxymethyl)-6,6-dimethyl-4,5,6,7-tetrahydro-1H-indazole-3-carboxamide] | 320 nM |
| CN(C)CC(c1ccccc1)n1cc(NC(=O)c2n[nH]c3c2CC(C)(C)C3)cn1 (single isomer, unassigned) [Example 96a, N-(1-(2-(dimethylamino)-1-phenylethyl)-1H-pyrazol-4-yl)-5,5-dimethyl-1,4,5,6-tetrahydrocyclopenta[c]pyrazole-3-carboxamide] | 57 nM |
| CN(C)CC(c1ccccc1)n1cc(NC(=O)c2n[nH]c3c2CC(C)(C)C3)cn1 (single isomer, unassigned) [Example 96b, N-(1-(2-(dimethylamino)-1-phenylethyl)-1H-pyrazol-4-yl)-5,5-dimethyl-1,4,5,6-tetrahydrocyclopenta[c]pyrazole-3-carboxamide] | 2 nM |

Results, then the compound that gave them:

| Ki | SMILES |
| --- | --- |
| 2 nM | CC1(C)Cc2[nH]nc(C(=O)Nc3cnn(C(CS(C)(=O)=O)c4cccnc4)c3)c2C1 (single isomer, unassigned) [Example 97a, 5,5-dimethyl-N-(1-(2-(methylsulfonyl)-1-(pyridin-3-yl)ethyl)-1H-pyrazol-4-yl)-1,4,5,6-tetrahydrocyclopenta[c]pyrazole-3-carboxamide] |
| 6 nM | CC1(C)Cc2[nH]nc(C(=O)Nc3cnn(C(CS(C)(=O)=O)c4cccnc4)c3)c2C1 (single isomer, unassigned) [Example 97b, 5,5-dimethyl-N-(1-(2-(methylsulfonyl)-1-(pyridin-3-yl)ethyl)-1H-pyrazol-4-yl)-1,4,5,6-tetrahydrocyclopenta[c]pyrazole-3-carboxamide] |
| 8 nM | CC(c1cncs1)n1cc(NC(=O)c2n[nH]c3c2CCC(C)(C)C3)cn1 (single isomer, unassigned) [Example 98a, 6,6-dimethyl-N-(1-(1-(thiazol-5-yl)ethyl)-1H-pyrazol-4-yl)-4,5,6,7-tetrahydro-1H-indazole-3-carboxamide] |
| 2 nM | CC(c1cncs1)n1cc(NC(=O)c2n[nH]c3c2CCC(C)(C)C3)cn1 (single isomer, unassigned) [Example 98b, 6,6-dimethyl-N-(1-(1-(thiazol-5-yl)ethyl)-1H-pyrazol-4-yl)-4,5,6,7-tetrahydro-1H-indazole-3-carboxamide] |
| 4 nM | CCC(c1cnn(CC)c1)n1cc(NC(=O)c2n[nH]c3c2CCC(C)(C)C3)cn1 (single isomer, unassigned) [Example 99a, N-(1-(1-(1-ethyl-1H-pyrazol-4-yl)propyl)-1H-pyrazol-4-yl)-6,6-dimethyl-4,5,6,7-tetrahydro-1H-indazole-3-carboxamide] |
| 4 nM | CCC(c1cnn(CC)c1)n1cc(NC(=O)c2n[nH]c3c2CCC(C)(C)C3)cn1 (single isomer, unassigned) [Example 99b, N-(1-(1-(1-ethyl-1H-pyrazol-4-yl)propyl)-1H-pyrazol-4-yl)-6,6-dimethyl-4,5,6,7-tetrahydro-1H-indazole-3-carboxamide] |
| 17 nM | CCn1cc(C(C)n2cc(NC(=O)c3n[nH]c4c3CCC(C)(C)C4)cn2)cn1 (single isomer, unassigned) [Example 100a, N-(1-(1-(1-ethyl-1H-pyrazol-4-yl)ethyl)-1H-pyrazol-4-yl)-6,6-dimethyl-4,5,6,7-tetrahydro-1H-indazole-3-carboxamide] |
| 7 nM | CCn1cc(C(C)n2cc(NC(=O)c3n[nH]c4c3CCC(C)(C)C4)cn2)cn1 (single isomer, unassigned) [Example 100b, N-(1-(1-(1-ethyl-1H-pyrazol-4-yl)ethyl)-1H-pyrazol-4-yl)-6,6-dimethyl-4,5,6,7-tetrahydro-1H-indazole-3-carboxamide] |
| 41 nM | Cc1nnc(C(C)n2cc(NC(=O)c3n[nH]c4c3CCC(C)(C)C4)cn2)o1 (single isomer, unassigned) [Example 101a, 6,6-dimethyl-N-(1-(1-(5-methyl-1,3,4-oxadiazol-2-yl)ethyl)-1H-pyrazol-4-yl)-4,5,6,7-tetrahydro-1H-indazole-3-carboxamide] |
| 12 nM | Cc1nnc(C(C)n2cc(NC(=O)c3n[nH]c4c3CCC(C)(C)C4)cn2)o1 (single isomer, unassigned) [Example 101b, 6,6-dimethyl-N-(1-(1-(5-methyl-1,3,4-oxadiazol-2-yl)ethyl)-1H-pyrazol-4-yl)-4,5,6,7-tetrahydro-1H-indazole-3-carboxamide] |
| 300 nM | CC1(C#N)CCc2c(C(=O)Nc3cnn(Cc4ccccc4)c3)n[nH]c2C1 (single isomer, unassigned) [Example 102a, N-(1-benzyl-1H-pyrazol-4-yl)-6-cyano-6-methyl-4,5,6,7-tetrahydro-1H-indazole-3-carboxamide] |
| 10 nM | CC1(C#N)CCc2c(C(=O)Nc3cnn(Cc4ccccc4)c3)n[nH]c2C1 (single isomer, unassigned) [Example 102b, N-(1-benzyl-1H-pyrazol-4-yl)-6-cyano-6-methyl-4,5,6,7-tetrahydro-1H-indazole-3-carboxamide] |
| 20 nM | CC(c1ncco1)n1cc(NC(=O)c2n[nH]c3c2CCC(C)(C)C3)cn1 (single isomer, unassigned) [Example 103a, 6,6-dimethyl-N-(1-(1-(oxazol-2-yl)ethyl)-1H-pyrazol-4-yl)-4,5,6,7-tetrahydro-1H-indazole-3-carboxamide] |
| 9 nM | CC(c1ncco1)n1cc(NC(=O)c2n[nH]c3c2CCC(C)(C)C3)cn1 (single isomer, unassigned) [Example 103b, 6,6-dimethyl-N-(1-(1-(oxazol-2-yl)ethyl)-1H-pyrazol-4-yl)-4,5,6,7-tetrahydro-1H-indazole-3-carboxamide] |
